Laboratory results reported in EP0771187B1, “NOVEL COMBINATION PRODUCT COMPRISING AN ANTIFUNGAL AGENT AND CROTAMITON AS AN ANTIFUNGAL ACTIVITY ENHANCER AND DERMATOLOGICAL OR COSMETIC COMPOSITIONS COMPRISING SAME” (Pierre Fabre Dermo-Cosmetique, priority 1994, dated 1996).

What was measured:
Format in all cases: cell-based
[1] = test system: Pityrosporium ovale sauvages dont une éco-R; assay: Fungicidal activity: checkerboard combined with Afnor membrane filtration, 5 min contact (Example 1); details: pH about 8, read-out: Mg : moyenne géométrique du Log 10 de la réduction du nombre de germes; for log reduction at 2 %: product alone at 2 % (m/v); for log reduction at 4 %: product alone at 4 % (m/v)
Procedure: CMF définissant la concentration minimale de fongicide pour laquelle on obtient une diminution de 4.Log 10 de l'inoculum ensemencé en 5 minutes de contact à 20°C.
Des souches de Malassezia furfur (Pityrosporum ovale) ont été testées pour leur sensibilité vis-à-vis des principes actifs seuls ou bien en association selon l'invention.
Les souches sont issues du Laboratoire de Parasitologie du Centre Hospitalier Régional de Rangueil de TOULOUSE (France) et une souche est éconazole résistante (éco-R). Elles ont été cultivées lors des essais sur milieu Dixon solide.
(§1) La technique utilisée est originale car elle utilise à la fois le principe de la technique de l'échiquer et celui de la norme Afnor par filtration sur membrane relative à la fongicidie avec un temps de contact germe-molécules de 5 minutes.
(§2) C'est une macro-méthode qui a donc été réalisée ici avec validations à chaque essai du témoin solvant des molécules (Tween® 20 %, éthanol 17 % dans l'eau distillée).
Ce solvant inhibe légèrement l'activité de la ciclopiroxolamine, et il faut donc s'attendre à de meilleurs résultats en pratique. Les autres témoins sont celui de la vigueur de la souche et de l'efficacité des produits seuls, soit : - ciclopiroxolamine 4 % - crotamiton 4 %
Le tableau 1 représente les moyennes géométiques de la réduction logarithmique sur deux Pityrosporium ovale sauvages dont une éco-R, le nombre d'essais ainsi que le pourcentage d'efficacité.
La norme Afnor considère qu'il y a fongicidie pour une réduction de 4 Log 10 de l'inoculum après 15 minutes de contact.
Le pH de l'ensemble de ces études se situe autour de 8.

P. ovale éco-R = assay: Fungicidal activity: checkerboard combined with Afnor membrane filtration, 5 min contact (Example 2, Table 2); details: Pityrosporium ovale, pH 9, read-out: Mg; for log reduction at 2 %: product alone at 2 %
Procedure: as §1, §2
(§3) L'association de l'octopirox avec le crotamiton a été testé selon la méthodologie de l'exemple 1 sur une souche Pityrosporium ovale éco-R et C. albicans ATCC 9021.
Le tableau 2 représente les résultats obtenus sur P. ovale éco-R après cinq minutes de contact pour l'association : • crotamiton 1 % - octopirox 1 % pour lequel nous avons 100 % d'efficacité • alors que les produits seuls à double ou quadruple concentrations sont moins actifs.
(§4) Le même solvant a été utilisé et validé à chaque essai comme le spécifie la norme Afnor.
(§5) Les essais de l'exemple 2 ont été réalisés avec un pH plus basique = 9.

C. albicans ATCC 9021 = assay: Fungicidal activity: checkerboard combined with Afnor membrane filtration, 5 min contact (Example 2, Table 3); details: Candida albicans, ATCC9021, 5 min, pH 9, read-out: Mg; for log reduction at 2 %: product alone at 2 %
Procedure: as §1, §2, §3, §4
Ces Résultats ont été confirmés sur une levure de référence Afnor (C.albicans ATCC 9021). Les résultats sont reportés dans le tableau 3.
as §5

SMILES	log reduction at 2 % [1]	log reduction at 4 % [1]	log reduction at 1 % ([1]; product alone at 1 % (m/v))	log reduction at 2 % (P. ovale éco-R)	log reduction at 4 % (P. ovale éco-R; product alone at 4 %)	log reduction at 2 % (C. albicans ATCC 9021)	log reduction at 4 % (C. albicans ATCC 9021; product alone at 4 %)	log reduction at 1 % (C. albicans ATCC 9021; product alone at 1 %)
Cc1cc(C2CCCCC2)n(O)c(=O)c1 [CPO, ciclopirox olamine]	0.43	2.05						
CC=CC(=O)N(CC)c1ccccc1C [Crota, N-éthyl-N-O-tolylcrotonamide]	0.77	3.77	0.03	1.59	3.26	2.43	4.95	
Cc1cc(CC(C)CC(C)(C)C)n(O)c(=O)c1 (stereo not drawn) [Octo, octopirox]				1.85		3.18		0.36
